Assay results published in paper PMC5026937 (Antiviral research, 2016).

System: A/Switzerland/9715293/2013 (H3N2)
Format: cell-based, Influenza A virus

## CCC(CC)O[C@@H]1C=C(C(=O)O)C[C@H](N)[C@H]1NC(C)=O [Oseltamivir carboxylate, oseltamivir carboxylate]
  EC50 increase on serial passage: more than ten-fold
